In patent US11529317B2, “Method of preparing silica nanocapsules and silica nanocapsules” (Agency for Science, Technology and Research, priority 2017, dated 2022):

Experiment: Timed release of glycerol in aqueous media, standard enzymatic assay
Type: physicochemical
Details: control
Experimental: In this example, timed release studies were conducted on the glycerol loaded silica nanocapsules in accordance with various embodiments disclosed herein. Firstly, the synthesized silica nano lens particles were loaded with glycerol. Then, they were suspended in aqueous media and compared with controls.
The percentage of glycerol released from the lens-shaped particles over a period of 80 minutes is estimated using standard enzymatic assay and the results are shown in FIG. 12. […] On the other hand, encapsulated glycerol is released gradually from the lens-shaped particles over a period of approximately two hours.

- dissolution of glycerol in water: instantly dissolves
Structure (SMILES): OCC(O)CO [unencapsulated glycerol, glycerol]
